Laboratory results published in patent US8703790B2, “Bis [O-(14-benzoylaconine-8-yl)] esters” (priority 2008, dated 2014).

Key:
[1] = test system: DNA topoisomerase II (Topo II); experiment: Topo II catalytic activity, decatenation of kDNA; type: biochemical; conditions: 1, 10, 100 and 1000 μM; dose independent
Method: Test for revelation of the possible inhibitory effect of SDD on Topo II catalytic activity has been undertaken by decatenation of a catenated DNA substrate originating from Trypanosoma kinetoplasts (kDNA, TopoGen) into relaxed DNA forms.
The following standard reaction mixture contained 40 mM Tris/HCl pH 7.4, 10 mM MgCl2, 0.5 mM dithiothreitol, 1 mM ATP and […] kDNA has been carried out.
The reaction was initiated by the addition of 0.35 M NaCl nuclear extract and stopped after 20 min incubation at 37° C. by adding a denaturating solution containing 30% glycerol, 1% SDS, 0.5 mg/ml bromphenol blue.
The samples were then electrophoresed on a 1% agarose gel in 40 mM Tris/acetic acid, pH 8.0 containing 2 mM EDTA and 0.1 μg/ml ethidium bromide, for 45 min at 80V.
A positive control for decatenation was a decatenated kDNA marker obtained from TopoGen, containing a mixture of two species of relaxed
DNA, open circular DNA and covalently closed circular DNA.
DNA was visualized under UV light and the various DNA forms were quantified by densitometric scanning using the device described above.
Etoposide was used as positive control, as it is described in the following publication: Differential stabilisation of topoisomerase-II-DNA cleavable complexes doxorubicine and etoposide in doxorubicin-resistant rat glioblastoma cells. […]

A549 (lung cancer) = experiment: In vitro cytotoxicity test (MTT) against human tumour cell line A549; type: cell-based; conditions: A549, 24 h contact, 48 h re-growth
Method: (§1) Human tumour cell lines A549 (lung cancer), HCT-15 (colon cancer) and MCF-7 (breast cancer) have been obtained from the Developmental Therapeutics Program of the National Cancer Institute (Rockville, Md., USA). Cells were routinely grown with RPMI 1640 medium supplemented with 10% foetal calf serum, both obtained from Biochrom AG (Berlin, Germany). They were grown on Petri dishes (Nunc, Denmark) at 37° C. in a humidified atmosphere containing 5% CO2. Cells were replicated every 4 days and the medium changed once in-between.
(§2) Cytotoxicity has been evaluated on exponentially growing cells grown for 24 h in presence of the compounds to be tested. Briefly, 4000 cells were seeded in 96-well plates with 200 μL of complete medium; 24 hours later the medium was supplemented with a series of different concentrations of compounds and the contact maintained for 24 h. Compounds were dissolved in pure water and sterilised using polycarbonate membrane filters of 0.22 μm (Millipore, Molsheim, France). The cells were then allowed to re-grow for 48 hours; viable and metabolically active cells were quantitatively estimated by coloration with the MTT dye (1-(4,5-dimethylthyazol-2-yl)-3,5-diphenylformazan), Sigma-Aldrich Chimie, Saint-Quentin-Fallavier, France). The amount of substance allowing a 50% decrease in cell numbers is indicative of the cytotoxicity and represents the IC50 of compound.

female Swiss mouse = experiment: Acute systemic toxicity, preliminary test, intravenous; type: in vivo; conditions: for death of the animal, time after the test item administration: 1 female Swiss mouse
Method: The study has been performed to assess the acute systemic toxicity of SDD in the mouse preliminary test.
The SDD was administered, by intravenous route: • in a first step to 1 female Swiss mouse at the single dose of 95 mg/kg b.w., • in a second step to 1 female Swiss mouse at the single dose of 60 mg/kg b.w., • in a third step to 1 female Swiss mouse at the single dose of 55 mg/kg b.w., and • in a fourth step to a group of 2 female Swiss mice at the single dose of 50 mg/kg b.w.

HCT-15 (colon cancer) = experiment: In vitro cytotoxicity test (MTT) against human tumour cell line HCT-15; type: cell-based; conditions: HCT-15, 24 h contact, 48 h re-growth
Method: as §1, §2

[2] = 50 mg/kg b.w. iv, 1 hour after administration

CCN1C[C@]2(COC)[C@H](O)C[C@H](OC)[C@]34C1[C@H]([C@H](OC)[C@H]23)[C@]1(OC(=O)CCCCCCC(=O)O[C@]23[C@H]5[C@@H](OC(=O)c6ccccc6)[C@](O)(C[C@H]5[C@@]56C7[C@@H]2[C@H](OC)[C@@H]5[C@](COC)(CN7CC)[C@H](O)C[C@@H]6OC)[C@@H](OC)[C@@H]3O)[C@H]2[C@@H](OC(=O)c3ccccc3)[C@](O)(C[C@H]24)[C@@H](OC)[C@@H]1O [SDD, bis[O-(14-benzoylaconine-8-yl)]-suberate]
inhibition of Topo II activity compared to etoposide [1]: relatively moderate inhibition | IC50 (A549 (lung cancer)): 18.7 µM | decrease of the righting reflex (animals affected) (female Swiss mouse; [2]): 1/2 | decrease of the spontaneous activity (animals affected) (female Swiss mouse; [2]): 2/2 | local finding at the tails (female Swiss mouse; 50 mg/kg b.w. iv, first day to fourteenth day): oedema at the level of the tails | mortality (female Swiss mouse; 50 mg/kg b.w. single dose iv, 2 female Swiss mice): No mortality | macroscopical examination (female Swiss mouse; 50 mg/kg iv, end of the study): did not reveal any treatment-related changes | death of the animal, time after the test item administration (female Swiss mouse; 55 mg/kg b.w. single dose iv): 24 h | death of the animal, time after the test item administration (female Swiss mouse; 60 mg/kg b.w. single dose iv): 3 h | death of the animal, time after the test item administration (female Swiss mouse; 95 mg/kg b.w. single dose iv): immediately | body weight evolution (female Swiss mouse; preliminary test, throughout the study): remained normal | IC50 (HCT-15 (colon cancer)): 3.7 µM
